In patent US11926594B1, “6′-(3-bromophenyl)-2′-ethoxy-3,4′-bipyridine-3′-carbonitrile as an antioxidant compound” (KING FAISAL UNIVERSITY, priority 2023, dated 2024):

Experiment: DPPH radical scavenging antioxidant test
Type: biochemical
Conditions: 517 nm; for Inhibition (radical scavenging inhibition): compound 3 μM in ethanol, 0.2 mL DPPH (0.75 mM), 30 minutes in the dark
Method: The antioxidant activity of 6′-(3-bromophenyl)-2′-ethoxy-3,4′-bipyridine-3′-carbonitrile was investigated by 2,2-diphenyl-1-picrylhydrazyl (DPPH) in vitro tests that employ vitamin C as the positive control.
The antioxidant properties of the 6′-(3-bromophenyl)-2′-ethoxy-3,4′-bipyridine-3′-carbonitrile compound were studied by adding 0.2 mL DPPH (0.75 mM)) to 6′-(3-bromophenyl)-2′-ethoxy-3,4′-bipyridine-3′-carbonitrile (3 μM) (4) in ethanol. After 30 minutes of incubation in the dark, the absorbance was read against a blank at 517 nm. Ascorbic acid (vitamin C) was used as standard antioxidants (positive control). A blank sample was prepared by 0.2 mL of DPPH in 3 mL ethanol. A negative control sample was run using ethanol instead of the sample. The radical scavenging inhibition was calculated using the following equation: […]

SMILES	antioxidant potential (DPPH) compared to vitamin C (DPPH in vitro test, vitamin C as positive control)	Inhibition (radical scavenging inhibition)
CCOc1nc(-c2cccc(Br)c2)cc(-c2cccnc2)c1C#N [Product 4, 6′-(3-bromophenyl)-2′-ethoxy-3,4′-bipyridine-3′-carbonitrile]	high potential as an antioxidant compared to vitamin C	48%
O=C1O[C@H]([C@@H](O)CO)C(O)=C1O [vit c, Ascorbic acid, reference compound]		74%
